In paper PMC8985176, “Structural transformation of methasterone with Cunninghamella blakesleeana and Macrophomina phaseolina” (RSC Advances, 2022):
In brackets after ≈: the same amount, converted by molar mass. Like-named read-outs stand apart in the source and are kept apart here.

Columns and labels:
[1] = tested on: nitric oxide (NO) production; assay: Nitric oxide (NO) production inhibitory assay (Griess method, LPS-stimulated J774.2 macrophages); assay type: cell-based, mouse
Protocol: The J774.2 cell line (mouse macrophage) was obtained from (European Collection of Cell Cultures, Salisbury, UK). It was cultivated in […] flasks (IWAKI, Asahi Techno Glass, Shizuoka, Japan), containing DMEM (Sigma-Aldrich, Steinheim, Germany) and fetal bovine serum (FBS) (10%) (GIBCO, New York, NY, USA) and 1% streptomycin/penicillin, and were incubated in 5% CO2 at 37 °C. Fully-grown cells (10^6 cells per mL) were transferred into the 96-well plate, and NO synthase was added into the wells by E. coli (30 μg mL^−1) lipopolysaccharide (LPS) (DIFCO Laboratories, Detroit, MI, USA) for NO production. Samples were tested with different concentrations (1, 10, and 25 μg mL^−1), and placed in CO2 (5%) at 37 °C. N^G monomethyl L-arginine acetate (LNMMA) was used as a standard NO inhibitor. Griess method was used to analyze the accumulation of nitrite in the cells.[35] IC50 values were calculated by a Microsoft Excel-based formula.

[2] = Cytotoxicity MTT assay, BJ cells; assay type: cell-based; details: human, BJ normal human fibroblast cells, μM converted to μg mL^−1, read-out: IC50 cytotoxicity against human normal cell line (BJ)
Protocol: (§1) MCF-7 (breast cancer), NCI-H460 (lung cancer), HeLa (cervical cancer) cell lines, and BJ (normal human fibroblast) cell lines were collected from cell culture biobank (PCMD, ICCBS). DMEM medium was used for MCF-7, HeLa, and BJ, and RPMI (ATCC modified medium) was used for NCI-H460. The media was supplemented with 10% FBS, 100 IU mL^−1 of penicillin, and 100 μg mL^−1 of streptomycin, and kept at 37 °C in a 5% CO2 incubator. The inhibition was investigated by MTT assay. Briefly, 100 μL per well of cell solutions (10 × 10^4 cells per mL MCF-7 cells, 5 × 10^4 cells per mL NCI-H460 cells, 6 × 10^4 cells per mL HeLa cells, or 5 × 10^4 cells per mL BJ cells), were added into 96-well plate and incubated for 24 h at 37 °C, before treatment with 6.25–50 μM of compounds or positive control doxorubicin for 48 h. After this, 20 μL of MTT (5 mg mL^−1) was added to each well and then incubated for 4 h at 37 °C. Then 100 μL DMSO was added to each well to dissolve the purple formazan crystal. The absorbance was analyzed at 570 nm (MCF-7, NCI-H460, and HeLa) or 550 nm (BJ) using an ELISA plate reader.

[3] = tested on: MCF-7 (breast cancer) cell line; assay: Cytotoxicity MTT assay, MCF-7 cells; assay type: cell-based; details: Homo sapiens, MCF7, 48 h
Protocol: as §1

[4] = tested on: NCI-H460 (lung cancer) cell line; assay: Cytotoxicity MTT assay, NCI-H460 cells; assay type: cell-based; details: Homo sapiens, 48 h
Protocol: as §1

[5] = tested on: HeLa (cervical cancer) cell line; assay: Cytotoxicity MTT assay, HeLa cells; assay type: cell-based; details: Homo sapiens, 48 h
Protocol: as §1

[6] = J774.2 mouse macrophages, LPS 30 μg mL^−1, Griess method, read-out: IC50 against nitric oxide (NO) production

SMILES | IC50 [1, 6] [µg/mL] | IC50 at 48 h [2] [µg/mL] | inhibition at 50 µM [3] [%] | inhibition at 50 µM [4] [%] | inhibition at 50 µM [5] [%] | melting point [°C] | IC50 ([1]; Mus musculus, J774.2, read-out: IC50 against nitric oxide (NO) production) [µg/mL] | IC50 against nitric oxide (NO) production ([1]; J774.2 mouse macrophages, LPS 30 μg mL^−1, Griess method) [µg/mL] | IC50 ([4]; read-out: IC50 against NCI-H460) [µg/mL]
CC1CC2(C)C(CCC3C2CCC2(C)C3CCC2(C)O)CC1=O (centres unmarked) [Compound 1, methasterone] | 23.9 ± 0.2 (≈ 75 µM) | 8.01 ± 0.52 (≈ 25.1 µM) | < 50 | < 50 | < 50 |  |  |  | 
C[C@@H]1C[C@@]2(C)[C@H](CC1=O)[C@H](O)[C@H](O)[C@@H]1[C@@H]2CC[C@@]2(C)[C@H]1CC[C@]2(C)O [Compound 2, 6β,7β,17β-Trihydroxy-2α,17α-dimethyl-5α-androstane-3-one] | 38.1 ± 0.5 (≈ 109 µM) |  | < 50 | < 50 | < 50 | 139 to 141 |  |  | 
CC1CC2(C)C(CC1=O)C(O)CC1C3CCC(C)(O)C3(C)CCC12O (stereo not drawn) [Compound 7, 6β,9α,17β-Trihydroxy-2α,17α-dimethyl-5α-androstane-3-one] |  |  | < 50 | < 50 | < 50 | 139 to 141 | 40.2 ± 3.3 (≈ 115 µM) |  | 
CC(=O)O.CNC(=N)NCCC[C@H](N)C(=O)O [LNMMA, N^G monomethyl L-arginine acetate, reference compound] |  |  |  |  |  |  |  | 24.2 ± 0.8 | 
COc1cccc2c1C(=O)c1c(O)c3c(c(O)c1C2=O)C[C@@](O)(C(=O)CO)C[C@@H]3O[C@H]1C[C@H](N)[C@H](O)[C@H](C)O1 [doxorubicin, reference compound] |  |  |  |  |  |  |  |  | 0.76 ± 0.05 (≈ 1.4 µM)
